Results on two molecules are retold here after patent US20090043378A1, “Biocompatible Polymer System for Extended Drug Release” (priority 2007, published 2009).

One series deals with Monocytic U937 cells. Briefly: Monocyte adhesion to polymer coated wells (calcein uptake). The series is classed as cell-based.
Series [1] is described as follows: Octanol-water partition coefficient of zotarolimus. It is filed as physicochemical. The source says:
In one embodiment, the drug is zotarolimus (Formula 1) ([…], molecular weight=966.5 g/mol), a tetrazole-containing macrocyclic immunosuppressant. […] The mechanism of action of zotarolimus is binding to FKBP12, leading to the formation of a trimeric complex with the protein kinase mTOR (mammalian target of rapamycin) thereby inhibiting its activity. Inhibition of mTOR results in the inhibition of protein phosphorylation events associated with translation of mRNA and cell cycle control.

The nature of the next series: physchem. It is filed as physicochemical. An excerpt:
The hydrophobicity of zotarolimus enhances its absorption across the cellular membrane leading to inhibition of neointimal proliferation of the target tissues.

Converted amounts (≈) assume the structure as drawn.

Description for Monocytic U937 cells: Monocytic U937 cells were purchased from ATCC Cell Biology Collection and maintained in culture according to vendor recommendations. U937 cells were seeded at 1×10^5/well onto polymer coated 96 well plates. The cells were stimulated with lipopolysaccharide (LPS) (100 ng/mL) and phorbol-12-myristate-13-acetate (PMA) (100 ng/mL) to induce differentiation and inflammatory activation. […] Adhesion of U937 cells to the polymer scaffold was assessed by calcein uptake as detailed in the following protocol. U937 cells were fluorescently labeled by incubation with calcein (1 mg/mL) for 30 minutes. Calcein is a fluorescent dye hydrolyzed by esterases in viable cells. The percent uptake of calcein is directly proportional to the number of viable cells in the well. The percent of cell adhesion was determined by reading the fluorescent measurements prior to and after gentle PBS washing of the adherent monocytes from the polymer coated plates. […] To calculate the relative percent adhesion, the ratio between the fluorescent measurement prior to and after gentle PBS washing of the adherent monocytes from the polymer coated plates was first determined. […]
In order to evaluate, in vitro, the polymers potential to elicit an inflammatory response, the adhesion of activated monocytes to the components of various polymers were measured, individually and in combination (C10, C19, and C10/C19).

Turning to Poly(butyl methacrylate) [PBMA], the “monocyte adherence, fold induction over non-stimulated, negative control cells” value in the series with Monocytic U937 cells was 12.6 fold.

On to `CO[C@H]1C[C@@H]2CC[C@@H](C)[C@@](O)(O2)C(=O)C(=O)N2CCCC[C@H]2C(=O)O[C@H]([C@H](C)C[C@@H]2CC[C@H](n3cnnn3)[C@H](OC)C2)CC(=O)[C@H](C)/C=C(\C)[C@@H](O)[C@@H](OC)C(=O)[C@H](C)C[C@H](C)/C=C/C=C/C=C/1C` [zotarolimus], for which the octanol-water partition coefficient in series [1] (pH 6.5) and in series [1] (pH 7.4) was more than 4.5 in each case. In addition, the solubility (in general, the dissolved amount per volume that the medium holds) in “physchem” (pH 6.5, aqueous buffer) stood at 0.47 µg/mL (≈ 0.486 µM); in “physchem” (pH 7.4, aqueous buffer) it was 0.53 µg/mL (≈ 0.549 µM).
